Experimental findings from patent US20200352923A1 (priority 2017, published 2020) are described below.

This assay deals with rat bladder muscle strips (detrusor). Type of assay: cell-based.

Each structure is given as a SMILES string.

With `CN(C)C(=O)Oc1ccc[n+](C)c1` [pyridostigmine], the “drop in force from baseline after pyridostigmine” value came to 13±6% and the “recovery of the force drop” value is “about 50%”.
